These results are taken from ChEMBL document CHEMBL1157112, “Discovery of anti-inflammatory clinical candidate E6201, inspired from resorcylic lactone LL-Z1640-2, III” (Bioorg Med Chem Lett, 2010).

SMILES strings stand for the structures. Bounds are passed on as bounds.

For one data set, the system named is THP-1. The experiment in a line: Antiinflammatory activity in human THP1 cells assessed as inhibition of LPS-induced TNFalpha production by PLAP reporter assay. It counts as functional, cell-based. (In general: Reporter assays use an easily measured gene product as a stand-in for the process of interest.)
Data set [1] in a line: Antiinflammatory activity in human B164 cells assessed as inhibition of LPS-induced Actin production by PLAP reporter assay. It counts as functional.
The test system of data set [2] is Mus musculus. The experiment in a line: Antiarthritic activity in po dosed BALB/c mouse collagen antibody induced arthritis model assessed as inhibition of increase of arthritis score administered qd for 2 days after collagen antibody challenge measured after 2 days. It counts as functional. To be noted: 48 h.
Data set [3] is described as follows: Toxicity in po dosed BALB/c mouse collagen antibody induced arthritis model assessed as tolerated dose. Format: organism-based. Particulars: in vivo.
Data set [4] is filed under the species Mus musculus. The experiment in a line: Ratio of ED50 for BALB/c mouse collagen antibody induced arthritis model to tolerated dose for BALB/c mouse collagen antibody induced arthritis model. It counts as functional.
Data set [5] in a line: Oral bioavailability in mouse. Format: ADME, organism-based. To be noted: in vivo.

On to `C[C@@H]1/C=C\C(=O)[C@@H](O)[C@@H](O)C/C=C/c2cc(NCc3ccccc3)cc(O)c2C(=O)O[C@H]1C`, for which, in the data set on THP-1, the IC50 worked out at 1250 nM.
Turning to `CCn1cnc2c3c(c(O)cc21)C(=O)O[C@@H](C)[C@H](C)/C=C\C(=O)[C@@H](O)[C@@H](O)C/C=C/3`, in the data set with THP-1, the IC50 came out at 43 nM. In data set [1], the Activity is >10 µM. Also, the ED50 in the data set on Mus musculus [2] stood at 10 mg/kg. For the same compound, the maximum tolerated dose (MTD) in data set [3] was < 10 mg/kg. In addition, in the data set listed under Mus musculus [4], the Ratio was 1.
For the compound `CCCNc1cc(O)c2c(c1)/C=C/C[C@H](O)[C@H](O)C(=O)/C=C\[C@@H](C)[C@H](C)OC2=O`, the IC50 in the data set on THP-1 turned out to be 26 nM.
For the compound `Cc1nc2c3c(c(O)cc2n1C)C(=O)O[C@@H](C)[C@H](C)/C=C\C(=O)[C@@H](O)[C@@H](O)C/C=C/3`, the IC50 in the data set with THP-1 amounted to 108 nM. The Activity in data set [1] is >10 µM. In addition, the 50% effective dose (ED50) with Mus musculus [2] was 10 mg/kg. Further, the MTD in data set [3] is < 10 mg/kg. Moreover, the Ratio in the data set filed under Mus musculus [4] is 1.
Take `CCN(CC)c1cc(O)c2c(c1)/C=C/C[C@H](O)[C@H](O)C(=O)/C=C\[C@@H](C)[C@H](C)OC2=O`: the IC50 in the data set on THP-1 was 2070 nM.
For the compound `C[C@@H]1/C=C\C(=O)[C@@H](O)[C@@H](O)C/C=C/c2cc(N3CCOCC3)cc(O)c2C(=O)O[C@H]1C`, in the data set with THP-1, the IC50 was 129 nM. The bioavailability in data set [5] was found to be 48%.
For `C[C@@H]1/C=C\C(=O)[C@@H](O)[C@@H](O)C/C=C/c2cc(NCCO)cc(O)c2C(=O)O[C@H]1C`, in the data set on THP-1, the IC50 was 71 nM.
For the compound `COc1ccc2c(c1)c(CC(=O)O)c(C)n2C(=O)c1ccc(Cl)cc1` [INDOMETHACIN], the ED50 in the data set on Mus musculus [2] amounted to 1 mg/kg. Further, the MTD in data set [3] stood at 3 mg/kg. The Ratio in the data set listed under Mus musculus [4] is on record as 3.
For `CCNc1cc(O)c2c(c1)/C=C/C[C@H](O)[C@H](O)C(=O)/C=C\[C@@H](C)[C@H](C)OC2=O` [E-6201], in the data set on THP-1, the IC50 amounted to 56 nM. Besides, the bioavailability in data set [5] stood at 12%. The ED50 in the data set on Mus musculus [2] amounted to 5 mg/kg. The MTD in data set [3] was > 30 mg/kg. For the same compound, in the data set listed under Mus musculus [4], the Ratio is reported as 3.
Take `C[C@]12C=CC(=O)C=C1CC[C@@H]1[C@@H]2[C@@H](O)C[C@@]2(C)[C@H]1CC[C@]2(O)C(=O)CO` [PREDNISOLONE]: the median effective dose (ED50) with Mus musculus [2] is 3 mg/kg. Further, the MTD in data set [3] amounted to 10 mg/kg. Also, the Ratio in the data set filed under Mus musculus [4] turned out to be 3.
As for `C[C@@H]1/C=C\C(=O)[C@@H](O)[C@@H](O)C/C=C/c2c(c(O)cc3c2ncn3C)C(=O)O[C@H]1C`, the IC50 in the data set with THP-1 stood at 23 nM. Besides, the Activity in data set [1] was >10 µM. In data set [5], this compound registered a bioavailability of 49%. Moreover, the ED50 in the data set with Mus musculus [2] came to 5 mg/kg. The MTD in data set [3] was < 5 mg/kg. The Ratio in the data set listed under Mus musculus [4] stood at 1.
For the compound `C[C@@H]1/C=C\C(=O)[C@@H](O)[C@@H](O)C/C=C/c2cc(N3CCNCC3)cc(O)c2C(=O)O[C@H]1C`, the IC50 with THP-1 amounted to 351 nM.
As to `C[C@@H]1/C=C\C(=O)[C@@H](O)[C@@H](O)C/C=C/c2cc(N)cc(O)c2C(=O)O[C@H]1C`, the IC50 with THP-1 is 360 nM. The bioavailability in data set [5] is 49%.
`CNc1cc(O)c2c(c1)/C=C/C[C@H](O)[C@H](O)C(=O)/C=C\[C@@H](C)[C@H](C)OC2=O`: the IC50 in the data set on THP-1 is 85 nM. The compound also displayed a bioavailability in data set [5] of 29%. For the same compound, the ED50 in the data set on Mus musculus [2] was determined as 5 mg/kg. Further, the MTD in data set [3] is > 30 mg/kg. In addition, in the data set filed under Mus musculus [4], the Ratio is reported as 6.
With `C[C@@H]1/C=C\C(=O)[C@@H](O)[C@@H](O)C/C=C/c2cc(N(C)C)cc(O)c2C(=O)O[C@H]1C`, the IC50 in the data set on THP-1 amounted to 437 nM. Moreover, in data set [5], the bioavailability is 21%. Also, in the data set on Mus musculus [2], the ED50 came out at 15 mg/kg. Besides, in data set [3], the MTD was 60 mg/kg. Also, the Ratio in the data set filed under Mus musculus [4] amounted to 4.

Usually IC50 stands for the concentration at which inhibition is half-maximal. As usually defined, the ED50 is the dose at which the effect has come halfway, by size or by number of responders. Broadly, the MTD is the highest dose tested that stayed within the study's limit of toxicity. One may read the bioavailability as dose-corrected exposure relative to a reference, in per cent. High values mean much systemic uptake, low ones little systemic uptake.
